Consider one compound from patent publication US7893203B2, “Protein involved in G protein-coupled receptor mediated signal transduction with ability to mediate signal transduction from a dopamine D1 receptor or an adenosine A2A receptor to an adenylate cyclase and utilization thereof” (Sumitomo Chemical Company, Ltd., priority 2002, dated 2011).

The assay concerns the target T1, adenosine A2a receptor (Homo sapiens, UniProt P29274).
T1 construct: expressed in transfected cells; host or cells: CHO cells, transient lipofection
The experiment in a line: Screening of adenosine A2a receptor antagonist using change in cAMP level as index. The format is cell-based. Particulars: 10 μM test substance with 10 μM adenosine, CHO cells with A2a receptor and Gm1, cAMP level. The procedure: Then, 10 μM of adenosine as a GPCR ligand and 10 μM of a test substance (DMPX) were added and incubated at 37° C. for 30 minutes.
A substance which gave a cAMP level percentage of 85% or less upon contact of the cell with the ligand and the test substance was selected as a signal transduction inhibitor (antagonist), on the basis of the cAMP level with no contact being 0% and the cAMP level with the contact of the cell only with the ligand being 100% (FIG. 4).

SMILES strings stand for the structures.

T1 sequence (P29274 whole entry): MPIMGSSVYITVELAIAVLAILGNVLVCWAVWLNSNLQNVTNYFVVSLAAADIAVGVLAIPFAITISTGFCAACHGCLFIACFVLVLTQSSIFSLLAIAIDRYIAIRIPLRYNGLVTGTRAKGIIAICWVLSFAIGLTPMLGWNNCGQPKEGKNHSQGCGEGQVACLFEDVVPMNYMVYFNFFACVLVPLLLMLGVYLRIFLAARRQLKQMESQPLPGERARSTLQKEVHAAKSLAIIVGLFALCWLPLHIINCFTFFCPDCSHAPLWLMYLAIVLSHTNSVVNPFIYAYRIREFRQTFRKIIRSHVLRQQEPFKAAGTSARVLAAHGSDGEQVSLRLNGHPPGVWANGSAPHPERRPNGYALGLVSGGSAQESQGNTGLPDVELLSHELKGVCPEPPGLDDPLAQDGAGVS

For the compound `C#CCn1c(=O)c2c(ncn2C)n(C)c1=O` [DMPX], the “adenosine A2a receptor antagonistic effects (FIG. 4)” value is recorded as “antagonistic effects”.
